Assay results published in patent US6838479B2, “Amidine inhibitors of serine proteases” (Genentech, Inc., priority 2000, dated 2005).
pKi: −log10 of the molar value. Several values for one entry are separate records, joined by “and”; a condition that tells them apart may be missing. Equal entries are not always repeated.

Assays:
Assay type in all cases: biochemical
[1] = target: T1, human Thrombin (Homo sapiens, UniProt P00734); assay: Thrombin assay (chromogenic, Ki); conditions: 8.2 nM thrombin, S-2266 0.3 mM; read-out: binding affinity to serine proteases: thrombin
T1 construct: rapidly converts prothrombin to thrombin
Description: (§1) Factor Xa, Thrombin, and Plasma Kallikrein Assays
(§2) These procedures are used to determine the constant of inhibition (Ki) for a sample compound of the invention.
(§3) Procedure • 1. Add 50 μL sample to each well. • 2. Add 50 μL appropriately diluted coagulation factor to each well. • 3. Incubate for 5 minutes at room temperature with gentle agitation. • 4. Add 50 μL appropriately diluted substrate to each well. • 5. Agitate plate for 20-25 sec. • 6. Monitor absorbance at 405 nm every 10 sec for a total of 5 minutes at room temperature. • 7. Calculate Vmax over 10 points.

[2] = target: human Plasma Kallikrein (Homo sapiens, UniProt P03952); assay: Plasma Kallikrein assay (chromogenic, Ki); conditions: 1.5 nM plasma kallikrein, S-2302 0.3 mM; read-out: binding affinity to serine proteases: kallikrein
Sequence of human Plasma Kallikrein (P03952 391-638 limits assumed): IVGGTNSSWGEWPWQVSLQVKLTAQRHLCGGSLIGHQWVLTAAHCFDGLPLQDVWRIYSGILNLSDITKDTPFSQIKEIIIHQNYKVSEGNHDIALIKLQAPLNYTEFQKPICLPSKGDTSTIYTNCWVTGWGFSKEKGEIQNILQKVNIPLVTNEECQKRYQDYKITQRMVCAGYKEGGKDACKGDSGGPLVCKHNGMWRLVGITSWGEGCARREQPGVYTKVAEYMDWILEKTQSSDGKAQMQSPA
Sequence of human Plasma Kallikrein (P03952 20-390 partner limits assumed): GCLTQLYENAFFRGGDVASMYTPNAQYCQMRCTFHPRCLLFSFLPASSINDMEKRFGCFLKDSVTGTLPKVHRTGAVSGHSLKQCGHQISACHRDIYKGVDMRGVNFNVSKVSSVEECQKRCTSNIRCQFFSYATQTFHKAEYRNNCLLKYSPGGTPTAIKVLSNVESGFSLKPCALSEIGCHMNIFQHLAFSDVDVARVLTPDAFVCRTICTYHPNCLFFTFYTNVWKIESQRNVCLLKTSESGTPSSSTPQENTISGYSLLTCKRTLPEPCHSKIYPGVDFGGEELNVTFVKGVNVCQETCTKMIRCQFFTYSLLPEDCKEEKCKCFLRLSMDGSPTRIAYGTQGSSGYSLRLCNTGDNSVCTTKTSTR
Description: as §1, §2, §3

[3] = target: tissue factor/factor VIIa (Homo sapiens, UniProt P08709); assay: Tissue Factor/Factor VIIa antagonist assay (chromogenic, Ki); conditions: 10 nM VIIa, 30 nM TF, Chromozym-tPA 1.33 mM; read-out: binding affinity to serine proteases: VIIa
Sequence of tissue factor/factor VIIa (P08709 213-466 limits assumed): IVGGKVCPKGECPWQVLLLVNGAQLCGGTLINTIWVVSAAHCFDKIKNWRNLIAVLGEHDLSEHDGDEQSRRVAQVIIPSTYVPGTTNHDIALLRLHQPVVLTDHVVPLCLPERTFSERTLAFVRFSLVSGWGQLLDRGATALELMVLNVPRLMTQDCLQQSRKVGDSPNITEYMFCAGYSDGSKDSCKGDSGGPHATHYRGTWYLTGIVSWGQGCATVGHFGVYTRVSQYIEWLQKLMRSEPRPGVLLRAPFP
Sequence of tissue factor/factor VIIa (P08709 61-212 limits assumed): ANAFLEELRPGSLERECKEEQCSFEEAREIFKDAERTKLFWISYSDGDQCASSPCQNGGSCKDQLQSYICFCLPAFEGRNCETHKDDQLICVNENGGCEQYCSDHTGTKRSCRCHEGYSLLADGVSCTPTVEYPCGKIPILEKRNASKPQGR
Sequence of tissue factor/factor VIIa (P13726 33-251 partner limits assumed): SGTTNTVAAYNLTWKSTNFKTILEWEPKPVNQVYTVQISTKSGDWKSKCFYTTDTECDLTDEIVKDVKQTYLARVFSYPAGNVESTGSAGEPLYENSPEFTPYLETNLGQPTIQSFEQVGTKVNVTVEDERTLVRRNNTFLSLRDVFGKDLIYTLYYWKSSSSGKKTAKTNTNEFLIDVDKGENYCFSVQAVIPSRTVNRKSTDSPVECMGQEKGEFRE
Description: Tissue Factor/Factor VIIa Antagonist Assay
This procedure is used to determine the constant of inhibition (Ki) for a sample compound of the invention.
Procedure • 1. Prepare a solution of 2 μg/mL (90 nM) tissue factor and 1.5 μg/mL (30 nM) factor VIIa in assay buffer with CaCl2. • 2. Incubate for 15 minutes at room temperature. • 3. Add 50 μL sample to each well. • 4. Add 50 μL tissue factor/factor VIIa solution to each well. • 5. Incubate for 15 minutes at room temperature with gentle agitation. • 6. Add 50 μL substrate to each well. • 7. Agitate plate for 20-25 sec. • 8. Monitor absorbance at 405 nm every 10 see for a total of 5 minutes at room temperature. • 9. Calculate Vmax over 10 points.

[4] = target: plasmin (Homo sapiens, UniProt P00747); assay: Plasmin binding affinity; conditions: read-out: binding affinity to serine proteases: plasmin
Sequence of plasmin (P00747 581-810 limits assumed, species assumed): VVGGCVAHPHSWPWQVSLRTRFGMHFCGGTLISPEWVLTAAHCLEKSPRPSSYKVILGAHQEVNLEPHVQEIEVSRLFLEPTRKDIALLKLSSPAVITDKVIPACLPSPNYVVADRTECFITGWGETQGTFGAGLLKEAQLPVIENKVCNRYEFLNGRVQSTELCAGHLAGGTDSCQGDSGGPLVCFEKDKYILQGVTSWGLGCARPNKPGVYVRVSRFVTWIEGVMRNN
Sequence of plasmin (P00747 97-580 partner limits assumed, species assumed): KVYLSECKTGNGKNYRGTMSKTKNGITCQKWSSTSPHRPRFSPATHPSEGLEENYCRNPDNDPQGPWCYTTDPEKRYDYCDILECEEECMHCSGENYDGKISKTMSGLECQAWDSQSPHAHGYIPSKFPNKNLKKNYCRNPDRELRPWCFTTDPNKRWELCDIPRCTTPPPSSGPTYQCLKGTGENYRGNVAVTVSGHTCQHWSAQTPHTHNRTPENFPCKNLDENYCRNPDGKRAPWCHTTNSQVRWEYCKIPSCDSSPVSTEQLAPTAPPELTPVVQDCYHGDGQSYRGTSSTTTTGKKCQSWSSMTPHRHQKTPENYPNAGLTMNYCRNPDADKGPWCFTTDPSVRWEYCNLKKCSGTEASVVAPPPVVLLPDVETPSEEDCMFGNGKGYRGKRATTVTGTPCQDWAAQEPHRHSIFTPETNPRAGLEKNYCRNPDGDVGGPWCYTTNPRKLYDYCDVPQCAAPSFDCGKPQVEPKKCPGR

[5] = target: T2, trypsin (Bos taurus, UniProt P00760); assay: Trypsin binding affinity; conditions: read-out: binding affinity to serine proteases: trypsin
T2 sequence (P00760 24-246): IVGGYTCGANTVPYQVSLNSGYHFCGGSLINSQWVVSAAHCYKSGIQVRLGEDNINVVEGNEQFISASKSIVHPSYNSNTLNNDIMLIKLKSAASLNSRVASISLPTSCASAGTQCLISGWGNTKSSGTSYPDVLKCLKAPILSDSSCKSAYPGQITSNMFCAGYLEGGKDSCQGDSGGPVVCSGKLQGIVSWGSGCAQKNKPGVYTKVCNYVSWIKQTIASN

[6] = target: T3, human Factor Xa (Homo sapiens, UniProt P00742); assay: Factor Xa assay (chromogenic, Ki); conditions: 3.3 nM Xa, S-2222 0.5 mM; read-out: binding affinity to serine proteases: Xa
T3 construct: This complex converts factor X to Xa
T3 sequence (P00742 235-488 limits assumed): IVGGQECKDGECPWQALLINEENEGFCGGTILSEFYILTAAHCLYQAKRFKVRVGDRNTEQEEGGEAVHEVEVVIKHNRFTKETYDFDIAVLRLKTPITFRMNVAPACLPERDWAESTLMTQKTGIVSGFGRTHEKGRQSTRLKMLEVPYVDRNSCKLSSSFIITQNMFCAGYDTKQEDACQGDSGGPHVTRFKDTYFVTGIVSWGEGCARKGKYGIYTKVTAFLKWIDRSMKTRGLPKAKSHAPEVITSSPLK
T3 sequence (P00742 41-179 limits assumed): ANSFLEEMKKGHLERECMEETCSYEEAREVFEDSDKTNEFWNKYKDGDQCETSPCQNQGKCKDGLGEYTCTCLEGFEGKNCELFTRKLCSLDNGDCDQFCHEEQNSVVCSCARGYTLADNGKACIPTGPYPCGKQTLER
Description: as §1, §2, §3

CCCN1C[C@H](Oc2cccc(C(=N)N)c2)C[C@H]1C(=O)Nc1ccc(C(=N)N)cc1 [compound 1] showed a pKi [1] of 5.32, a pKi [2] of 5.18 and a pKi [3] of 5.11. For the same compound, the pKi [4] was 5.13, the pKi [5] was 6.06 and the pKi [6] was 6.53.

Compound N=C(N)c1ccc(NC(=O)[C@@H]2C[C@@H](Oc3cccc(C(=N)N)c3)CN2Cc2ccccc2[N+](=O)[O-])cc1 [compound 5] has a pKi [1] of 4.84, a pKi [2] of 4.80 and a pKi [3] of under 4.41. It also gave a pKi [4] of 5.15, a pKi [5] of 5.67 and a pKi [6] of 5.67.

Compound N=C(N)c1ccc(NC(=O)[C@@H]2C[C@@H](Oc3cccc(C(=N)N)c3)CN2C2CCCCC2)cc1 [compound 6] has a pKi [2] of 5.47, a pKi [3] of under 4.41 and a pKi [4] of 4.82. The pKi [5] was 5.29 and the pKi [6] was 5.62.

N=C(N)c1ccc(NC(=O)[C@@H]2C[C@@H](Oc3cccc(C(=N)N)c3)CN2Cc2ccccc2[N+](=O)[O-])cc1 [compound 7] was tested, and the pKi [1] was 4.60, the pKi [2] was 4.70 and the pKi [3] was under 4.41. The pKi [4] was 5.15, the pKi [5] was 5.65 and the pKi [6] was 5.60.

COc1cc2c(cc1OC)CN(C(=O)[C@@H]1C[C@@H](Oc3cccc(C(=N)N)c3)CN1)CC2 [compound 11] was tested, and the pKi [1] was 6.06, the pKi [2] was 6.01 and the pKi [4] was 5.13. It also gave a pKi [5] of 6.22 and a pKi [6] of 5.23.

CC(=O)N1C[C@H](Oc2cccc(C(=N)N)c2)C[C@H]1C(=O)Nc1ccc(C(=N)N)cc1 [compound 14] gave a pKi [1] of under 4.44, a pKi [3] of under 4.41 and a pKi [4] of under 4.61. The pKi [5] was 4.99 and the pKi [6] was 5.18.

Work on CN(Cc1ccccc1)C(=O)[C@@H]1C[C@@H](Oc2cccc(C(=N)N)c2)CN1Cc1ccccc1 [compound 15] yielded a pKi [1] of 4.96, a pKi [2] of 4.47 and a pKi [3] of 3.81. The pKi [4] was 4.81, the pKi [5] was 5.65 and the pKi [6] was 5.17.

In the case of CCCCCCN1C[C@H](Oc2cccc(C(=N)N)c2)C[C@H]1C(=O)Nc1ccc(C(=N)N)cc1 [compound 16], the pKi [1] was 4.54, the pKi [2] was 4.77 and the pKi [3] was under 4.41. For the same compound, the pKi [4] was 4.92, the pKi [5] was 5.22 and the pKi [6] was 5.17.

N=C(N)c1cccc(O[C@@H]2C[C@@H](C(=O)Nc3ccc(Cl)cc3)N(C(=O)c3ccccc3)C2)c1 [compound 17] gave a pKi [2] of under 4.47, a pKi [3] of under 4.41 and a pKi [5] of 5.44. It also gave a pKi [6] of 5.10.

Compound N=C(N)c1cccc(O[C@@H]2C[C@@H](C(=O)N3CCc4ccccc4C3)N(S(=O)(=O)c3ccccc3)C2)c1 [compound 21] has a pKi [1] of 4.84, a pKi [3] of under 4.41 and a pKi [5] of 4.69. For the same compound, the pKi [6] was 4.98.

For N=C(N)c1ccc(NC(=O)[C@@H]2C[C@@H](Oc3cccc(C(=N)N)c3)CN2Cc2ccc([N+](=O)[O-])cc2)cc1 [compound 22], the pKi [1] was under 4.44, the pKi [2] was 5.47 and the pKi [3] was under 4.41. It also gave a pKi [4] of 4.82, a pKi [5] of 5.11 and a pKi [6] of 4.98.

Work on C=CCOC(=O)[C@@H]1C[C@@H](Oc2cccc(C(=N)N)c2)CN1 [compound 27] yielded a pKi [3] of 4.81, a pKi [4] of under 4.61 and a pKi [5] of 4.85. The pKi [6] was 4.85.

Compound N=C(N)c1cccc(O[C@@H]2C[C@@H](C(=O)N3CCc4ccccc4C3)N(C(=O)c3ccccc3)C2)c1 [compound 32] has a pKi [3] of under 3.40, a pKi [5] of 5.11 and a pKi [6] of 4.82.

C=CCOC(=O)[C@@H]1C[C@@H](Oc2cccc(C(=N)N)c2)CN1C(=O)c1ccccc1 [compound 36] was tested, and the pKi [1] was 4.66, the pKi [2] was under 4.47 and the pKi [5] was 5.37. The pKi [6] was 4.70 and 4.85.

CS(=O)(=O)N1C[C@H](Oc2cccc(C(=N)N)c2)C[C@H]1C(=O)Nc1ccc(Cl)cc1 [compound 52] gave a pKi [1] of under 4.44, a pKi [2] of 4.57 and a pKi [3] of under 4.41. For the same compound, the pKi [4] was under 4.61 and the pKi [5] was 4.39.

C=CCOC(=O)[C@@H]1C[C@@H](Oc2cccc(C(=N)N)c2)CN1Cc1ccccc1 [compound 60] showed a pKi [5] of 5.30.

For N=C(N)c1cccc(O[C@H]2CN[C@H](C(=O)N3CCCC(C(=O)O)C3)C2)c1 (some centres unmarked) [compound 67], the pKi [3] was at most 3.41 and the pKi [6] was 4.06.

For N=C(N)c1cccc(O[C@H]2CN[C@H](C(=O)N3CCCCC3CO)C2)c1 (some centres unmarked) [compound 68], the pKi [3] was at most 3.41 and the pKi [6] was 4.05.

Compound N=C(N)c1cccc(O[C@H]2CN[C@H](C(=O)N3CCCC(CO)C3)C2)c1 (some centres unmarked) [compound 69] has a pKi [3] of 3.93 and a pKi [6] of 4.04.

For N=C(N)c1cccc(O[C@@H]2C[C@@H](C(=O)O)N(Cc3ccccc3)C2)c1 [compound 70], the pKi [3] was 3.81 and the pKi [6] was 3.98.

N=C(N)c1cccc(O[C@H]2CN[C@H](C(=O)NCc3ccncc3)C2)c1 [compound 71] was tested, and the pKi [3] was at most 3.41 and the pKi [6] was 3.98.

CC(C)[C@@H](NC(=O)[C@@H]1C[C@@H](Oc2cccc(C(=N)N)c2)CN1)C(=O)O [compound 72] showed a pKi [3] of at most 3.41 and a pKi [6] of 3.88.

N=C(N)c1cccc(O[C@H]2CN[C@H](C(=O)N[C@@H](CCC(=O)O)C(=O)O)C2)c1 [compound 73] showed a pKi [3] of at most 3.41 and a pKi [6] of 3.85.

C=CCOC(=O)[C@@H]1C[C@@H](Oc2cccc(C(=N)N)c2)CN1S(=O)(=O)c1ccccc1 [compound 74] was tested, and the pKi [3] was under 3.71 and the pKi [6] was 3.85.

For C[C@H](NC(=O)[C@@H]1C[C@@H](Oc2cccc(C(=N)N)c2)CN1)C(=O)O [compound 75], the pKi [3] was at most 3.41 and the pKi [6] was 3.85.

With C=CCOC(=O)[C@@H]1C[C@@H](Oc2cccc(C(=N)N)c2)CN1C(C)=O [compound 76] the pKi [1] was under 4.44, the pKi [2] was under 4.47 and the pKi [4] was under 4.61. For the same compound, the pKi [5] was 4.52.

Work on N=C(N)c1cccc(O[C@H]2CN[C@H](C(=O)Nc3ccccc3)C2)c1 [compound 79] yielded a pKi [1] of under 4.44, a pKi [3] of 4.72 and a pKi [4] of 4.62. It also gave a pKi [5] of 4.70 and a pKi [6] of under 4.46.

COC(=O)[C@@H]1C[C@@H](Oc2cccc(C(=N)N)c2)CN1 [compound 80] gave a pKi [1] of under 4.44, a pKi [2] of 4.26 and a pKi [3] of under 4.41. It also gave a pKi [4] of under 4.61, a pKi [5] of 4.55 and a pKi [6] of under 4.45.

With CS(=O)(=O)N1C[C@H](Oc2cccc(C(=N)N)c2)C[C@H]1C(=O)O [compound 81] the pKi [3] was under 3.71 and the pKi [6] was under 3.76.

For N=C(N)c1cccc(O[C@@H]2C[C@@H](C(=O)O)N(S(=O)(=O)c3ccccc3)C2)c1 [compound 82], the pKi [3] was under 3.71 and the pKi [6] was under 3.76.
